Measurements taken from patent US12391679B2, “Benzamide-substituted bicyclic imidazo- and pyrazolo-fused -pyridine, -pyrimide, and -pyridazine compounds for treatment of inflammatory diseases” (ONCO3R Therapeutics BV, priority 2019, dated 2025).

What was measured:
Format in all cases: biochemical
[1] = target: T1, SIK1 (Homo sapiens, UniProt P57059); assay: ADP-Glo kinase assay, SIK1
T1 construct: purchased Carna Biosciences 02-131
How it was run: (§1)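 Luminescent ADP-Glo readout of ADP formed. Enzyme-substrate mix with ATP, reaction 120 min at RT, then 40 min ATP depletion and 30 min detection. Controls were 1% DMSO (negative) and 10 μM staurosporine (positive), both final.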

[2] = target: T2, SIK3 (Homo sapiens, UniProt Q9Y2K2); assay: ADP-Glo kinase assay, SIK3
T2 construct: purchased SignalChem S12-11G-100
T2 sequence (Q9Y2K2 59-365 limits assumed): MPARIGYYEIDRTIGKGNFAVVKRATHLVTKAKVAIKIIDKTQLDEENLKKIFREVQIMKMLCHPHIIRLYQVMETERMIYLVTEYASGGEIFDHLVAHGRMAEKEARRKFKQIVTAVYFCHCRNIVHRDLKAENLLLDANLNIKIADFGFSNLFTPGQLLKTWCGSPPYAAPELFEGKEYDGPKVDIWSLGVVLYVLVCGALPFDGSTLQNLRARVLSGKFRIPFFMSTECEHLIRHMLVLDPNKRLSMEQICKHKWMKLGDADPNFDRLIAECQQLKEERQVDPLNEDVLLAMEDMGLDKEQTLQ
How it was run: as §1

[3] = target: T3, SIK2 (Homo sapiens, UniProt Q9H0K1); assay: ADP-Glo kinase assay, SIK2
T3 construct: purchased ThermoFisher Scientific PV4792
T3 sequence (Q9H0K1 whole entry): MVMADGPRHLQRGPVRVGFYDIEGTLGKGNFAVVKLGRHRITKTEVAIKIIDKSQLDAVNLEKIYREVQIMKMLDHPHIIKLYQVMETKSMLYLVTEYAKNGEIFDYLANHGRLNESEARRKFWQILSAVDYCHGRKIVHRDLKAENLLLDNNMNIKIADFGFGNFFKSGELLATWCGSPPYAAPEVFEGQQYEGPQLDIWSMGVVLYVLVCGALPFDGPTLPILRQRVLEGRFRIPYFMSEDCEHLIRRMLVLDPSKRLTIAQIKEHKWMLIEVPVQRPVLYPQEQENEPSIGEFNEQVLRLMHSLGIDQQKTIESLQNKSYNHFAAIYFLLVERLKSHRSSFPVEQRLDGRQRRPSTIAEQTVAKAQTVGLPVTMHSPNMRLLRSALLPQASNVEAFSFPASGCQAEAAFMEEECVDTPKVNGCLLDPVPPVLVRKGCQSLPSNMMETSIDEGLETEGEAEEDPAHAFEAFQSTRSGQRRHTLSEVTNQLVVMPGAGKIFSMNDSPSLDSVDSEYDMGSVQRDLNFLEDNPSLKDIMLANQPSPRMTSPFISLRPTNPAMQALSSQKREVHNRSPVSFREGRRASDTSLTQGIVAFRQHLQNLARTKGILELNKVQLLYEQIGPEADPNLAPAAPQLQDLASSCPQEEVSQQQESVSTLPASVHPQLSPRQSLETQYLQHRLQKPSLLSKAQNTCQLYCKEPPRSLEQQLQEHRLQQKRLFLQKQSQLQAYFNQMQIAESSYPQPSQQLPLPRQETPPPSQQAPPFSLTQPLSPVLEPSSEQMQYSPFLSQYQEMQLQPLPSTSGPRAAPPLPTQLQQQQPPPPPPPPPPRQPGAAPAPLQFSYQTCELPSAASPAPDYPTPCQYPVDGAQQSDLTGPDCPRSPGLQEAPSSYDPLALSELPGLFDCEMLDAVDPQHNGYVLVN
How it was run: as §1

T1 sequence (P57059 whole entry): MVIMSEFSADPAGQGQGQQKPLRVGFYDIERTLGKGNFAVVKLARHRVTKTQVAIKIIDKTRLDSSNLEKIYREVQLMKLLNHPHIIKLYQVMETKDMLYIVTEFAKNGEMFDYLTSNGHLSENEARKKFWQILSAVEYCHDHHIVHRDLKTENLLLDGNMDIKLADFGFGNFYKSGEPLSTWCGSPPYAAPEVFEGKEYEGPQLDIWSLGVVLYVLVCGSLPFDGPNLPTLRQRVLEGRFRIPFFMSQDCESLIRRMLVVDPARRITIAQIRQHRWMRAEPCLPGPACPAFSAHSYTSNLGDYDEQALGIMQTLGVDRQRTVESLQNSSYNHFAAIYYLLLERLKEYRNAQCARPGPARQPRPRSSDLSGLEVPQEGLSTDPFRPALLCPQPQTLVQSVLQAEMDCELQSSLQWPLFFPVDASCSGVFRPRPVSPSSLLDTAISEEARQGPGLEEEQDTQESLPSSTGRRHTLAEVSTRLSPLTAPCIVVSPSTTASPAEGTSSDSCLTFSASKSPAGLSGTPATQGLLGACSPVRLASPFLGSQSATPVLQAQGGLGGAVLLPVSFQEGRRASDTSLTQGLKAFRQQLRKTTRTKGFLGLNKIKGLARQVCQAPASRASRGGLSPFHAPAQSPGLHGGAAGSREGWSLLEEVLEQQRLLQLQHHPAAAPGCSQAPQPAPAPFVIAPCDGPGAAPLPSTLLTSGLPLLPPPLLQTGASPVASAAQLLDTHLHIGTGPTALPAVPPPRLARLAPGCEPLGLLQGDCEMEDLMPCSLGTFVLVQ

Structure (SMILES)	IC50 [1]	IC50 [2]	IC50 [3]
CCN(CC)C(C)c1ccn2c(-c3cc(OC)c(C(=O)NC4CC4)c(OC(F)F)c3)cnc2c1 (stereo not drawn) [Cpd 148, N-cyclopropyl-4-[7-[1-(diethylamino)ethyl]imidazo[1,2-a]pyridin-3-yl]-2-(difluoromethoxy)-6-methoxy-benzamide]	> 500 nM	10 to 100 nM	> 500 nM
COc1cc(-c2cnc3cc(C(C)NC(C)C)ccn23)cc(OC(F)F)c1C(=O)NC1CC1 (stereo not drawn) [Cpd 149, N-cyclopropyl-2-(difluoromethoxy)-4-[7-[1-(isopropylamino)ethyl]imidazo[1,2-a]pyridin-3-yl]-6-methoxy-benzamide]	> 500 nM	10 to 100 nM	> 500 nM
COc1cc(-c2cnc3cc(C(C)N4CC5(COC5)C4)ccn23)cc(OC(F)F)c1C(=O)NC1CC1 (stereo not drawn) [Cpd 152, N-cyclopropyl-2-(difluoromethoxy)-6-methoxy-4-[7-[1-(2-oxa-6-azaspiro[3.3]heptan-6-yl)ethyl]imidazo[1,2-a]pyridin-3-yl]benzamide]	> 500 nM	10 to 100 nM	> 500 nM
COc1cc(-c2cnc3cc(C(C)N(C)CCO)ccn23)cc(OC(F)F)c1C(=O)NC1CC1 (stereo not drawn) [Cpd 154, N-cyclopropyl-2-(difluoromethoxy)-4-[7-[1-[2-hydroxyethyl(methyl)amino]ethyl]imidazo[1,2-a]pyridin-3-yl]-6-methoxy-benzamide]	> 500 nM	10 to 100 nM	> 500 nM
COc1cc(-c2cnc3cc(C(C)N4CC(F)(F)C4)ccn23)cc(OC(F)F)c1C(=O)NC1CC1 (stereo not drawn) [Cpd 156, N-cyclopropyl-4-[7-[1-(3,3-difluoroazetidin-1-yl)ethyl]imidazo[1,2-a]pyridin-3-yl]-2-(difluoromethoxy)-6-methoxy-benzamide]	> 500 nM	10 to 100 nM	> 500 nM
COc1cc(-c2cnc3cc(C(C)N4CCO[C@H](CO)C4)ccn23)cc(OC(F)F)c1C(=O)NC1CC1 (stereo partly drawn) [Cpd 157, N-cyclopropyl-2-(difluoromethoxy)-4-[7-[1-[(2S)-2-(hydroxymethyl)morpholin-4-yl]ethyl]imidazo[1,2-a]pyridin-3-yl]-6-methoxy-benzamide]	> 500 nM	10 to 100 nM	> 500 nM
COc1cc(-c2cnc3cc(C4CN(C(=O)OC(C)(C)C)C4)c(F)cn23)cc(OC(F)F)c1C(=O)NC1CC1 [Cpd 158, tert-butyl 3-[3-[4-(cyclopropylcarbamoyl)-3-(difluoromethoxy)-5-methoxy-phenyl]-6-fluoro-imidazo[1,2-a]pyridin-7-yl]azetidine-1-carboxylate]	100 to 500 nM	10 to 100 nM	100 to 500 nM
COc1cc(-c2cnc3cc(C(C)(C)CN4CCCC4)ccn23)cc(OC(F)F)c1C(=O)NC1CC1 [Cpd 161, N-cyclopropyl-2-(difluoromethoxy)-4-[7-(1,1-dimethyl-2-pyrrolidin-1-yl-ethyl)imidazo[1,2-a]pyridin-3-yl]-6-methoxy-benzamide]	> 500 nM	10 to 100 nM	> 500 nM
COc1cc(-c2cnc3cc(C4CCCN4C(=O)OC(C)(C)C)ccn23)cc(OC(F)F)c1C(=O)NC1CC1 (stereo not drawn) [Cpd 180, tert-butyl 2-[3-[4-(cyclopropylcarbamoyl)-3-(difluoromethoxy)-5-methoxy-phenyl]imidazo[1,2-a]pyridin-7-yl]pyrrolidine-1-carboxylate]	100 to 500 nM	10 to 100 nM	100 to 500 nM
COC(=O)C(C)(C#N)c1ccn2c(-c3cc(OC)c(C(=O)NC4CC4)c(OC(F)F)c3)cnc2c1 (stereo not drawn) [Cpd 184, methyl 2-cyano-2-[3-[4-(cyclopropylcarbamoyl)-3-(difluoromethoxy)-5-methoxy-phenyl]imidazo[1,2-a]pyridin-7-yl]propanoate]	> 500 nM	> 500 nM	> 500 nM
COc1cc(-c2cnc3cc(C4COCCN4C(=O)OC(C)(C)C)ccn23)cc(OC(F)F)c1C(=O)NC1CC1 (stereo not drawn) [Cpd 186, tert-butyl 3-[3-[4-(cyclopropylcarbamoyl)-3-(difluoromethoxy)-5-methoxy-phenyl]imidazo[1,2-a]pyridin-7-yl]morpholine-4-carboxylate]	> 500 nM	> 500 nM	> 500 nM
COc1cc(-c2cnc3cc(C4COCCN4)ccn23)cc(OC(F)F)c1C(=O)NC1CC1 (stereo not drawn) [Cpd 187, N-cyclopropyl-2-(difluoromethoxy)-6-methoxy-4-(7-morpholin-3-ylimidazo[1,2-a]pyridin-3-yl)benzamide]	> 500 nM	10 to 100 nM	> 500 nM
COc1cc(-c2cnc3cc(C(C)(O)Cn4cncn4)ccn23)cc(OC(F)F)c1C(=O)NC1CC1 (stereo not drawn) [Cpd 194, N-cyclopropyl-2-(difluoromethoxy)-4-[7-[1-hydroxy-1-methyl-2-(1,2,4-triazol-1-yl)ethyl]imidazo[1,2-a]pyridin-3-yl]-6-methoxy-benzamide]	> 500 nM	100 to 500 nM	> 500 nM
COCCN1CCCC1c1ccn2c(-c3cc(OC)c(C(=O)NC4CC4)c(OC(F)F)c3)cnc2c1 (stereo not drawn) [Cpd 196, N-cyclopropyl-2-(difluoromethoxy)-6-methoxy-4-[7-[1-(2-methoxyethyl)pyrrolidin-2-yl]imidazo[1,2-a]pyridin-3-yl]benzamide]	100 to 500 nM	10 to 100 nM	10 to 100 nM
COc1cc(-c2cnc3cc(C4CCCN4C(C)C)ccn23)cc(OC(F)F)c1C(=O)NC1CC1 (stereo not drawn) [Cpd 197, N-cyclopropyl-2-(difluoromethoxy)-4-[7-(1-isopropylpyrrolidin-2-yl)imidazo[1,2-a]pyridin-3-yl]-6-methoxy-benzamide]	100 to 500 nM	10 to 100 nM	10 to 100 nM
CCC(O)C(C)(C)c1ccn2c(-c3cc(OC)c(C(=O)NC4CC4)c(OC(F)F)c3)cnc2c1 (stereo not drawn) [Cpd 201, N-cyclopropyl-2-(difluoromethoxy)-4-[7-(2-hydroxy-1,1-dimethyl-butyl)imidazo[1,2-a]pyridin-3-yl]-6-methoxy-benzamide]	> 500 nM	10 to 100 nM	> 500 nM

Results, then the molecule that gave them:

IC50 [1]	IC50 [2]	IC50 [3]	Structure (SMILES)
> 500 nM	10 to 100 nM	> 500 nM	COCCNC(=O)C1(c2ccn3c(-c4cc(OC)c(C(=O)NC5CC5)c(OC(F)F)c4)cnc3c2)CC1 [Cpd 142, N-cyclopropyl-2-(difluoromethoxy)-6-methoxy-4-[7-[1-(2-methoxyethylcarbamoyl)cyclopropyl]imidazo[1,2-a]pyridin-3-yl]benzamide]
> 500 nM	100 to 500 nM	> 500 nM	CCN(CC)C(=O)C1(c2ccn3c(-c4cc(OC)c(C(=O)NC5CC5)c(OC(F)F)c4)cnc3c2)CC1 [Cpd 143, N-cyclopropyl-4-[7-[1-(diethylcarbamoyl)cyclopropyl]imidazo[1,2-a]pyridin-3-yl]-2-(difluoromethoxy)-6-methoxy-benzamide]
> 500 nM	10 to 100 nM	> 500 nM	COc1cc(-c2cnc3cc(C4(C(=O)N5CC(O)C5)CC4)ccn23)cc(OC(F)F)c1C(=O)NC1CC1 [Cpd 144, N-cyclopropyl-2-(difluoromethoxy)-4-[7-[1-(3-hydroxyazetidine-1-carbonyl)cyclopropyl]imidazo[1,2-a]pyridin-3-yl]-6-methoxy-benzamide]
> 500 nM	100 to 500 nM	> 500 nM	COc1cc(-c2cnc3cc(C4(CN5CCOCC5)CC4)ccn23)cc(OC(F)F)c1C(=O)NC1CC1 [Cpd 145, N-cyclopropyl-2-(difluoromethoxy)-6-methoxy-4-[7-[1-(morpholinomethyl)cyclopropyl]imidazo[1,2-a]pyridin-3-yl]benzamide]
> 500 nM	10 to 100 nM	> 500 nM	COc1cc(-c2cnc3cc(C4(C(=O)NCCO)CC4)ccn23)cc(OC(F)F)c1C(=O)NC1CC1 [Cpd 147, N-cyclopropyl-2-(difluoromethoxy)-4-[7-[1-(2-hydroxyethylcarbamoyl)cyclopropyl]imidazo[1,2-a]pyridin-3-yl]-6-methoxy-benzamide]
> 500 nM	100 to 500 nM	> 500 nM	COc1cc(-c2cnc3cc(C4(CNC(C)C)CC4)ccn23)cc(OC(F)F)c1C(=O)NC1CC1 [Cpd 151, N-cyclopropyl-2-(difluoromethoxy)-4-[7-[1-[(isopropylamino)methyl]cyclopropyl]imidazo[1,2-a]pyridin-3-yl]-6-methoxy-benzamide]
> 500 nM	10 to 100 nM	> 500 nM	COc1cc(-c2cnc3cc(C(C)N4CCCC4)ccn23)cc(OC(F)F)c1C(=O)NC1CC1 (stereo not drawn) [Cpd 153, N-cyclopropyl-2-(difluoromethoxy)-6-methoxy-4-[7-(1-pyrrolidin-1-ylethyl)imidazo[1,2-a]pyridin-3-yl]benzamide]
> 500 nM	10 to 100 nM	> 500 nM	COc1cc(-c2cnc3cc(C(C)N4CC(O)C4)ccn23)cc(OC(F)F)c1C(=O)NC1CC1 (stereo not drawn) [Cpd 155, N-cyclopropyl-2-(difluoromethoxy)-4-[7-[1-(3-hydroxyazetidin-1-yl)ethyl]imidazo[1,2-a]pyridin-3-yl]-6-methoxy-benzamide]
10 to 100 nM	0.01 to 10 nM	10 to 100 nM	COc1cc(-c2cnc3cc(C4CCC4)ccn23)cc(OC(F)F)c1C(=O)NC1CC1 [Cpd 159, 4-(7-cyclobutylimidazo[1,2-a]pyridin-3-yl)-N-cyclopropyl-2-(difluoromethoxy)-6-methoxy-benzamide]
> 500 nM	10 to 100 nM	> 500 nM	COc1cc(-c2cnc3cc(C4CCCN4C(C)=O)ccn23)cc(OC(F)F)c1C(=O)NC1CC1 (stereo not drawn) [Cpd 198, 4-[7-(1-acetylpyrrolidin-2-yl)imidazo[1,2-a]pyridin-3-yl]-N-cyclopropyl-2-(difluoromethoxy)-6-methoxy-benzamide]
> 500 nM	10 to 100 nM	> 500 nM	COc1cc(-c2cnc3cc(C(O)C4CCC4)ccn23)cc(OC(F)F)c1C(=O)NC1CC1 (stereo not drawn) [Cpd 199, 4-[7-[cyclobutyl(hydroxy)methyl]imidazo[1,2-a]pyridin-3-yl]-N-cyclopropyl-2-(difluoromethoxy)-6-methoxy-benzamide]
